Measurements from patent publication US8299073B2, “P38 MAP kinase inhibitors” (Respivert Ltd., priority 2008, dated 2012).
Where two headings read alike, the source gives them in different places.

Tests used:
[1] = test system: Differentiated U937 cells; experiment: MTT assay (loss of cell viability); assay type: cell-based, human; conditions: for MTT 4 hr / MTT 24 hr: loss of cell viability, 10 ug/ml
[2] = test system: LPS-induced TNFα release in THP-1 cells; experiment: LPS-induced TNF alpha release in THP-1 cells; assay type: cell-based; conditions: Homo sapiens
[3] = test system: LPS-induced TNFα release in differentiated U937 cells; experiment: LPS-induced TNF alpha release in differentiated U937 cells; assay type: cell-based
[4] = molecular target: T1, recombinant, phosphorylated p38 MAPK gamma (MAPK12:Millipore) (Homo sapiens, UniProt P53778); experiment: Enzyme inhibition assay (FRET, Z-LYTE), p38 MAPK gamma; assay type: biochemical; conditions: read-out: IC50 values P38γ enzyme
T1 construct: purchased Millipore
T1 sequence (P53778 1-367): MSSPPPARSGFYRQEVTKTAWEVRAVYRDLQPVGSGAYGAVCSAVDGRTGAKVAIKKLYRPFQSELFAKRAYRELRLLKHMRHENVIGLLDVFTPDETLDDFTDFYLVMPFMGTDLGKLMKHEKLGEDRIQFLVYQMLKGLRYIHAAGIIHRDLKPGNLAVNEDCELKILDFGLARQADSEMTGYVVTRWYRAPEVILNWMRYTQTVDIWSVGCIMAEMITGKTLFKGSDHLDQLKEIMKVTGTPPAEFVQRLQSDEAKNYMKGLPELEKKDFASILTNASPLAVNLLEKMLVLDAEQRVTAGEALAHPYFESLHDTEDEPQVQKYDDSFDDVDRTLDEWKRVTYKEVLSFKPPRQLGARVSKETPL

[5] = molecular target: T2, p38 MAPK alpha (MAPK14: Invitrogen) (Homo sapiens, UniProt Q16539); experiment: Enzyme inhibition assay (FRET, Z-LYTE), p38 MAPK alpha, via activation of MAPKAP-K2; assay type: biochemical; conditions: read-out: IC50 values p38α enzyme
T2 construct: purchased Invitrogen
T2 sequence (Q16539 whole entry): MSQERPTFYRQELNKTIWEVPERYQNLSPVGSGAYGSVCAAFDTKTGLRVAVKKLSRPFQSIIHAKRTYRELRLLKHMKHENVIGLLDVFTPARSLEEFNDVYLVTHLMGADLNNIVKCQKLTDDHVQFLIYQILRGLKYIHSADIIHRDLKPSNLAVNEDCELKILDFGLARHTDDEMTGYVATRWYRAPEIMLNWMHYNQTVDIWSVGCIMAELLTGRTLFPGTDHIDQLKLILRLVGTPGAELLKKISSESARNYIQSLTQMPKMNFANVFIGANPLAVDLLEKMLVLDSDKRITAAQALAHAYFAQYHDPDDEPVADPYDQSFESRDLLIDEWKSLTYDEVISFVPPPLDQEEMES

[6] = THP-1, LPS-induced TNFα release, read-out: IC50 values THP-1 cells
[7] = Homo sapiens; read-out: R-EC50 values d-U937 cells
[8] = THP-1, read-out: IC50 values THP-1 cells
[9] = Homo sapiens, read-out: R-EC50 values d-U937 cells

IC50 [2, 6] [nM]	EC50 [3, 7] [nM]	IC50 [4] [nM]	IC50 [5] [nM]	Compound	Differentiated U937 cells MTT Assay ([1]; 4, 24 h (10 μg/ml))	MTT 4 hr [1]	MTT 24 hr [1]	IC50 [2, 8] [nM]	EC50 [3, 9] [nM]
< 500	< 500	< 500	–	CNC(=O)Nc1cc(COc2ccc(NC(=O)Nc3cc(C(C)(C)C)nn3-c3ccc(C)cc3)c3ccccc23)ccn1 [Example 2, Methyl 4-((4-(3-(3-tert-butyl-1-p-tolyl-1H-pyrazol-5-yl)ureido)naphthalen-1-yloxy)methyl)pyridin-2-ylurea]	–	− (− <30%)	− (− <30%)	–	–
< 10	< 10	< 500	< 10	Cc1ccc(-n2nc(C(C)(C)C)cc2NC(=O)Nc2ccc(OCc3ccnc(NC(=O)C4CCOCC4)c3)c3ccccc23)cc1 [Example 3, N-(4-((4-(3-(3-tert-Butyl-1-p-tolyl-1H-pyrazol-5-yl)ureido)naphthalen-1-yloxy)methyl)pyridin-2-yl)tetrahydro-2H-pyran-4-carboxamide]	–	− (− <30%)	+ (+ >30% at 10 ug/ml)	–	–
< 10	< 10	< 500	< 500	CO[C@@H](C)C(=O)Nc1cc(COc2ccc(NC(=O)Nc3cc(C(C)(C)C)nn3-c3ccc(C)cc3)c3ccccc23)ccn1 [Example 4, (S)-N-(4-((4-(3-(3-tert-Butyl-1-p-tolyl-1H-pyrazol-5-yl)ureido)naphthalen-1-yloxy)methyl)pyridin-2-yl)-2-methoxypropanamide]	–	− (− <30%)	− (− <30%)	–	–
< 10	< 10	< 5000	< 10	CO[C@H](C)C(=O)Nc1cc(COc2ccc(NC(=O)Nc3cc(C(C)(C)C)nn3-c3ccc(C)cc3)c3ccccc23)ccn1 [Example 5, (R)-N-(4-((4-(3-(3-tert-Butyl-1-p-tolyl-1H-pyrazol-5-yl)ureido)naphthalen-1-yloxy)methyl)pyridin-2-yl)-2-methoxypropanamide]	–	− (− <30%)	+ (+ >30% at 10 ug/ml)	–	–
< 10	< 10	< 500	< 10	Cc1ccc(-n2nc(C(C)(C)C)cc2NC(=O)Nc2ccc(OCc3ccnc(NC(=O)CO)c3)c3ccccc23)cc1 [Example 7, N-(4-((4-(3-(3-tert-Butyl-1-p-tolyl-1H-pyrazol-5-yl)ureido)naphthalen-1-yloxy)methyl)pyridin-2-yl)-2-hydroxyacetamide]	–	− (− <30%)	+ (+ >30% at 10 ug/ml)	–	–
< 10	< 10	< 5000	< 500	CNC(C)(C)C(=O)Nc1cc(COc2ccc(NC(=O)Nc3cc(C(C)(C)C)nn3-c3ccc(C)cc3)c3ccccc23)ccn1 [Example 8, N-(4-((4-(3-(3-tert-Butyl-1-p-tolyl-1H-pyrazol-5-yl)ureido)naphthalen-1-yloxy)methyl)pyridin-2-yl)-2-methyl-2-(methylamino)propanamide]	–	− (− <30%)	+ (+ >30% at 10 ug/ml)	–	–
< 10	< 10	< 500	< 10	CN[C@@H](C)C(=O)Nc1cc(COc2ccc(NC(=O)Nc3cc(C(C)(C)C)nn3-c3ccc(C)cc3)c3ccccc23)ccn1 [Example 9, (S)-N-(4-((4-(3-(3-tert-Butyl-1-p-tolyl-1H-pyrazol-5-yl)ureido)naphthalen-1-yloxy)methyl)pyridin-2-yl)-2-(methylamino)propanamide]	–	− (− <30%)	+ (+ >30% at 10 ug/ml)	–	–
< 10	< 10	< 5000	< 500	Cc1ccc(-n2nc(C(C)(C)C)cc2NC(=O)Nc2ccc(OCc3ccnc(NC(=O)[C@H]4COCCN4)c3)c3ccccc23)cc1 [Example 10, (R)-N-(4-((4-(3-(3-tert-Butyl-1-p-tolyl-1H-pyrazol-5-yl)ureido)naphthalen-1-yloxy)methyl)pyridin-2-yl)morpholine-3-carboxamide]	–	− (− <30%)	− (− <30%)	–	–

More lines, now with the values behind:

Compound	IC50 [2, 6] [nM]	EC50 [3, 7] [nM]	IC50 [4] [nM]	IC50 [5] [nM]	Differentiated U937 cells MTT Assay ([1]; 4, 24 h (10 μg/ml))	MTT 4 hr [1]	MTT 24 hr [1]	IC50 [2, 8] [nM]	EC50 [3, 9] [nM]
COCC(=O)Nc1cc(COc2ccc(NC(=O)Nc3cc(C(C)(C)C)nn3-c3ccc(C)cc3)c3ccccc23)ccn1 [Example 1, N-(4-((4-(3-(3-tert-Butyl-1-p-tolyl-1H-pyrazol-5-yl)ureido)naphthalen-1-yloxy)methyl)pyridin-2-yl)-2-methoxyacetamide]	–	–	–	–	Negative^2	− (− <30%)	− (− <30%)	–	–
COCCNC(=O)CNC(=O)Nc1cc(COc2ccc(NC(=O)Nc3cc(C(C)(C)C)nn3-c3ccc(C)cc3)c3ccccc23)ccn1 [Example 15, 2-(3-(4-((4-(3-(3-tert-Butyl-1-p-tolyl-1H-pyrazol-5-yl)ureido)naphthalen-1-yloxy)methyl)pyridin-2-yl)ureido)-N-(2-methoxyethyl)acetamide]	< 10	< 500	< 500	–	–	− (− <30%)	− (− <30%)	–	–
COCCNCC(=O)Nc1cc(COc2ccc(NC(=O)Nc3cc(C(C)(C)C)nn3-c3ccc(C)cc3)c3ccccc23)ccn1 [Example 25, N-(4-((4-(3-(3-tert-Butyl-1-p-tolyl-1H-pyrazol-5-yl)ureido)naphthalen-1-yloxy)methyl)pyridin-2-yl)-2-(2-methoxyethylamino)acetamide]	< 10	< 10	< 500	–	–	− (− <30%)	− (− <30%)	–	–
CNC(=O)Nc1cnccc1COc1ccc(NC(=O)Nc2cc(C(C)(C)C)nn2-c2ccc(C)cc2)c2ccccc12 [Example 34, 1-(4-((3-Methylureidopyridin-4-yl)methoxy)naphthalen-1-yl)-3-(3-tert-butyl-1-p-tolyl-1H-pyrazol-5-yl)urea]	< 500	< 500	< 5000	–	–	+ (+ >30% at 10 ug/ml)	− (− <30%)	–	–
COCC(=O)Nc1cnccc1COc1ccc(NC(=O)Nc2cc(C(C)(C)C)nn2-c2ccc(C)cc2)c2ccccc12 [Example 35, N-(4-((4-(3-(3-tert-Butyl-1-p-tolyl-1H-pyrazol-5-yl)ureido)naphthalen-1-yloxy)methyl)pyridin-3-yl)-2-methoxyacetamide]	–	–	> 5000	–	–	− (− <30%)	− (− <30%)	–	–
COCCOCC(=O)Nc1cnccc1COc1ccc(NC(=O)Nc2cc(C(C)(C)C)nn2-c2ccc(C)cc2)c2ccccc12 [Example 36, N-(4-((4-(3-(3-tert-Butyl-1-p-tolyl-1H-pyrazol-5-yl)ureido)naphthalen-1-yloxy)methyl)pyridin-3-yl)-2-(2-methoxyethoxy)acetamide]	–	–	> 5000	–	–	− (− <30%)	− (− <30%)	< 500	< 10
Cc1ccc(-n2nc(C(C)(C)C)cc2NC(=O)Nc2ccc(Oc3ccnc(NC(=O)CS(C)(=O)=O)c3)c3ccccc23)cc1 [Example 51, N-(4-(4-(3-(3-tert-Butyl-1-p-tolyl-1H-pyrazol-5-yl)ureido)naphthalen-1-yloxy)pyridin-2-yl)-2-(methylsulfonyl)acetamide]	–	–	–	–	–	− (− <30%)	+ (+ >30% at 10 ug/ml)	< 10	< 10
